Data as given in patent publication US8791264B2 (Purdue Pharma L.P., priority 2006, dated 2014).

Tests used:
[1] = biological target: T1, N-type calcium channel (NTCC) (Homo sapiens, UniProt Q00975); assay: FLIPR calcium mobilization assay for N-type calcium channel; format: cell-based; conditions: calcium mobilization in vitro assay; differentiated IMR32 cells
T1 construct: host or cells: IMR32 cells differentiated with dibutyryl cAMP and bromodeoxyuridine
Description: Unless noted otherwise, cell culture reagents were purchased from Mediatech of Herndon, Md. IMR32 cells (American Type Culture Collection, ATCC, Manassas, Va.) were routinely cultured in growth medium consisting of minimum essential medium containing 10% fetal bovine serum (FBS, Hyclone, Logan, Utah), 100 U/mL penicillin, 100 μg/mL streptomycin, 2 mM L-glutamine, 1 mM sodium pyruvate, and 1× MEM non-essential amino acids. 80-90% confluent flasks of cells were differentiated using the following differentiation medium: Growth medium plus 1 mM dibutyryl cyclic AMP (Sigma, St. Louis, Mo.), and 2.5 μM bromodeoxyuridine (Sigma). Cells were differentiated for 8 days by replacing differentiation medium every 2-3 days.
FLIPR Calcium Mobilization Assay for N-Type Calcium Channel.
One day prior to performing this assay, differentiated IMR32 cells were treated with 1× CellStripper, and seeded on poly-D-lysine-coated 96-well clear-bottom black plates (Becton Dickinson, Franklin Lakes, N.J.) at 200,000 cells/well. On the day of the assay, the cell plates were washed with IMR32 buffer (127 mM NaCl, 1 mM KCl, 2 mM MgCl2, 700 μM NaH2PO4, 5 mM CaCl2, 5 mM NaHCO3, 8 mM HEPES, 10 mM glucose, pH 7.4), then pre-stimulated with KCl and loaded as follows: 0.05 mL of IMR32 buffer, 0.05 mL of each compound tested diluted in IMR32 buffer containing 20 μM nitrendipine (Sigma), and 0.1 mL KCl dissolved in IMR32 buffer, plus Fluo-4 were added (3 μM final concentration, Molecular Probes, Eugene, Oreg.). Final test compound concentrations ranged from about 846 pM to about 17 μM, final nitrendipine concentration was 5 μM, and final KCl concentration was 90 mM. After 1 hour, the cells were washed twice with 0.05 mL of each compound is tested in nitrendipine-containing IMR32 buffer (no KCl or Fluo-4), and then replaced with 0.1 mL of each compound tested in nitrendipine-containing IMR32 buffer. Plates were then transferred to a Fluorimetric Imaging Plate Reader (FLIPR^96, Molecular Devices, Inc., Sunnyvale, Calif.) for assay. The FLIPR measured basal Fluo-4 fluorescence for 315 seconds (i.e., 5 minutes and 15 seconds), then added 0.1 mL KCl agonist dissolved in IMR32 buffer and measured fluorescence for another 45 seconds. Final test compound concentrations on the cells after FLIPR read ranged from about 846 pM to about 17 μM, final nitrendipine concentration was 5 μM, and final KCl concentration was 90 mM. Data were collected over the entire time course and analyzed using Excel, Graph Pad Prism (version 3.02, Graph Pad, San Diego, Calif.), or an in-house non-linear regression analysis software.

[2] = biological target: T2, recombinant rat L-type calcium channel (LTCC) subunits (α1c, α2δ, and β1) (Rattus norvegicus, UniProt P22002); assay: FLIPR calcium mobilization assay for L-type calcium channel; format: cell-based; conditions: calcium mobilization in vitro assay; HEK293 cells expressing rat LTCC
T2 construct: expressed in transfected cells
T2 sequence (P22002 whole entry): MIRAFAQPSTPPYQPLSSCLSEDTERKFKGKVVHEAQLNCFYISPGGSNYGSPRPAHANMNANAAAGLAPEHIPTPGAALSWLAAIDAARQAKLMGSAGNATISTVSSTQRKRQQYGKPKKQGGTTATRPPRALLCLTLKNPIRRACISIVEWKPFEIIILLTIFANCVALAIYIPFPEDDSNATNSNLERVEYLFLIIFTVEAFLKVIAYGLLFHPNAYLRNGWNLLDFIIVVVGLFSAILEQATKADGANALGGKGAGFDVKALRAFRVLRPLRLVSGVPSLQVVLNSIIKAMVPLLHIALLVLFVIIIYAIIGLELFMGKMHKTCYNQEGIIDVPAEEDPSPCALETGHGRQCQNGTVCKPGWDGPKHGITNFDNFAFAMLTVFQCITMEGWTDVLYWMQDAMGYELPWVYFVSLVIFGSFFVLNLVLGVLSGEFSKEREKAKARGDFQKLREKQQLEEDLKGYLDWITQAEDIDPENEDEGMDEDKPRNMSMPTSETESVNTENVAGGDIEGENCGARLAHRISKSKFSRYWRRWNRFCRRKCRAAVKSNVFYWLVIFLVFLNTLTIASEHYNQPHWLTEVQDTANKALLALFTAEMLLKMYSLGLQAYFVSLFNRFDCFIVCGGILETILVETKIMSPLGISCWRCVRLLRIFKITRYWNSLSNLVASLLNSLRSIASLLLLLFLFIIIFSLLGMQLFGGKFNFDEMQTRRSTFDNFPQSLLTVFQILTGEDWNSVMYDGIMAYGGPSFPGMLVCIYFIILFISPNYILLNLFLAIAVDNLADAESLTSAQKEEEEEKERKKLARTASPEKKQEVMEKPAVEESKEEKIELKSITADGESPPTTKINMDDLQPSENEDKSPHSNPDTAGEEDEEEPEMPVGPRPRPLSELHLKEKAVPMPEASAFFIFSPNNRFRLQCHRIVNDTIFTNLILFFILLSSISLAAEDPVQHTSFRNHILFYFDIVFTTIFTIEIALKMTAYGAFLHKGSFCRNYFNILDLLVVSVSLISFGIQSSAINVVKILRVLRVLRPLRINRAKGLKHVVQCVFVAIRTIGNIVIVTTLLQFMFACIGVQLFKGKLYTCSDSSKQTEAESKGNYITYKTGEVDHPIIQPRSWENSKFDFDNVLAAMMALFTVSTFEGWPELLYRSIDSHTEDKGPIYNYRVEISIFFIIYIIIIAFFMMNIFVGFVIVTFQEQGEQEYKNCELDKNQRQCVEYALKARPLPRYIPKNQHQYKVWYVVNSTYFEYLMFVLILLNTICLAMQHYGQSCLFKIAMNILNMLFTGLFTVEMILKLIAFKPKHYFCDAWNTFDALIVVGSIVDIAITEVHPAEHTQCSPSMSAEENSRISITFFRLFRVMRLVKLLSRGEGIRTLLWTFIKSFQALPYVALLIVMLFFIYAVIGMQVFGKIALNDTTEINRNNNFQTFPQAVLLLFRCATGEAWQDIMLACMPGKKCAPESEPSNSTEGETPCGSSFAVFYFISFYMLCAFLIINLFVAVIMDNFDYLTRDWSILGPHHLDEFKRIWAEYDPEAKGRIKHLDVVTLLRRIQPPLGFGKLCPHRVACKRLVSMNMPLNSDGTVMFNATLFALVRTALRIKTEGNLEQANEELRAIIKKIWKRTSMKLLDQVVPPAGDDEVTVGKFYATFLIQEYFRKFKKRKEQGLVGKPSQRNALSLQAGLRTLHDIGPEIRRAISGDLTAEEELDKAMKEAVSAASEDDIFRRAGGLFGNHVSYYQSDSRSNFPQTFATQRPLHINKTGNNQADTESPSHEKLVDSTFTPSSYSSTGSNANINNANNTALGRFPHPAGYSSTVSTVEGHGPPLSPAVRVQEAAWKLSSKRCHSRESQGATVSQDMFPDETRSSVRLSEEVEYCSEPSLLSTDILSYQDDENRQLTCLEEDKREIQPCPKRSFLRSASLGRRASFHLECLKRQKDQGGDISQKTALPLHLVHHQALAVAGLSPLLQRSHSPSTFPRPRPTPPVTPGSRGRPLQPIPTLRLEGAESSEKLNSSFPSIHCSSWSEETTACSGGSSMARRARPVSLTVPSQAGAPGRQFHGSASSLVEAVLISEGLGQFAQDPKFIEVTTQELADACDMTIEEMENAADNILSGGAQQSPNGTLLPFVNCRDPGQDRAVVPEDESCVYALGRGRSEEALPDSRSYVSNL
T2 sequence (P54290 25-944 partner limits assumed): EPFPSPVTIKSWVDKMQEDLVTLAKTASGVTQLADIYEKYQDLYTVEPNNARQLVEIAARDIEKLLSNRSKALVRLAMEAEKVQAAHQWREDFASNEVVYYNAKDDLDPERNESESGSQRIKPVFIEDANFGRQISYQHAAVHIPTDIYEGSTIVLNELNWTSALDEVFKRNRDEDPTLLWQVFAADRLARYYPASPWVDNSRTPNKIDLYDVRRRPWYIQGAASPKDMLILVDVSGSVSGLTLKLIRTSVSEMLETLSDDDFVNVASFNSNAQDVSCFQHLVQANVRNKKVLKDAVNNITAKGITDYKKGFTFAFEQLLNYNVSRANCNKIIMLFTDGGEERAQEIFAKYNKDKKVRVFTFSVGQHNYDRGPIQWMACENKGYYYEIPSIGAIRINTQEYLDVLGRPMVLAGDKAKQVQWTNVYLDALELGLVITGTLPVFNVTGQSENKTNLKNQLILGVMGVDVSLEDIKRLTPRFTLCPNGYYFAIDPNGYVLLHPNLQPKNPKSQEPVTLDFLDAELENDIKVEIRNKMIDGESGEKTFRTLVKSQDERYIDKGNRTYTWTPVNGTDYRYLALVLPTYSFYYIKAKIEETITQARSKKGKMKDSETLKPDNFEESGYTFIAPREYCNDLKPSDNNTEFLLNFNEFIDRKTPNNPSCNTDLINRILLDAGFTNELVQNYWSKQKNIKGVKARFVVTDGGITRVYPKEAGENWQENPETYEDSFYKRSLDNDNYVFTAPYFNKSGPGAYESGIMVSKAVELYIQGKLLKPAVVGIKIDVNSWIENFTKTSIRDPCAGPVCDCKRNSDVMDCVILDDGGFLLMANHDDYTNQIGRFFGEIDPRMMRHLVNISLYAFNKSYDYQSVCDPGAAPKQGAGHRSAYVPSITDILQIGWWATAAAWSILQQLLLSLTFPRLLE
T2 sequence (P54290 945-1091 partner limits assumed): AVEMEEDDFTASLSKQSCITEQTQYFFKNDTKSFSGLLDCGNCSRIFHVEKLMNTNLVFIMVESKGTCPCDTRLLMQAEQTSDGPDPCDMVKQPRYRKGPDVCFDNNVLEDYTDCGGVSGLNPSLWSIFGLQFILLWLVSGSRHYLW
T2 sequence (P54283 whole entry partner): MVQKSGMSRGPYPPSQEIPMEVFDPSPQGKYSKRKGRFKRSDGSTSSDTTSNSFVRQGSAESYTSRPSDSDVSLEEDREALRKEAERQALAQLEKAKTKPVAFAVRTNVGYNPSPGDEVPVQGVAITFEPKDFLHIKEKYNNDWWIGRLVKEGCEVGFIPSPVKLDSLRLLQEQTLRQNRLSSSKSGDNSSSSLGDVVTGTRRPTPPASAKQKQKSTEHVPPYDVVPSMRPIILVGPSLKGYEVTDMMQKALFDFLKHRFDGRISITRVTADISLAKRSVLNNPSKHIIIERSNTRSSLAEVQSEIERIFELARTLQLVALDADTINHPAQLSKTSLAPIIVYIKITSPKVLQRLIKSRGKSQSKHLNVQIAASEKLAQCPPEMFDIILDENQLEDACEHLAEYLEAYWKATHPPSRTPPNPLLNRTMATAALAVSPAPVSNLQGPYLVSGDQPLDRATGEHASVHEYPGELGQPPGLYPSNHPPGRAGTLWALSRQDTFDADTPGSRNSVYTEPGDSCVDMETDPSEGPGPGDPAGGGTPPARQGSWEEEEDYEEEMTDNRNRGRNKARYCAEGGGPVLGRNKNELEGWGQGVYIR
Description: Recombinant human embryonal kidney cells (HEK293, ATCC) stably transfected with either N-type calcium channel (NTCC) subunits (α1b, α2δ, and ⊖3) or L-type calcium channel (LTCC) subunits (α1, α2δ, and β1) were routinely cultured in growth medium consisting of Dulbecco's Modified Eagles Medium containing 10% FBS, 100 U/mL penicillin, 100 μg/mL streptomycin, 4 mM L-glutamine, 500 μg/mL geneticin (G418), 20 μg/mL Blasticidin S (InVivogen, San Diego, Calif.) and 500 μg/mL zeocin (InVivogen).
FLIPR Calcium Mobilization Assay for L-Type Calcium Channel.
One day prior to performing this assay, HEK293 cells stably expressing recombinant rat L-type calcium channel (LTCC) subunits (α1c, α2δ, and β1) were trypsinized, then seeded on poly-D-lysine-coated 96-well clear-bottom black plates (Becton Dickinson, Franklin Lakes, N.J.) at 75,000 cells/well. On the day of the assay, the plates were washed with LTCC wash buffer (127 mM NaCl, 2 mM MgCl2, 700 μM NaH2PO4, 5 mM CaCl2, 5 mM NaHCO3, 8 mM HEPES, 10 mM glucose, pH 7.4), then loaded with 0.1 mL of LTCC wash buffer containing Fluo-4 (3 μM final concentration, Molecular Probes, Eugene, Oreg.). After 1 hour, the cells were washed with 0.1 mL LTCC wash buffer and resuspended in 0.05 mL LTCC assay buffer (same composition as LTCC wash buffer). Plates were then transferred to a FLIPR^96 for assay. The FLIPR measured basal Fluo-4 fluorescence for 15 seconds, then is added 0.05 mL of each compound tested diluted in LTCC assay buffer at final concentrations ranging from about 846 pM to about 17 μM. Fluo-4 fluorescence was then measured for 5 minutes. 0.1 mL KCl agonist dissolved in LTCC assay buffer was then added to the cells to produce a final concentration of 90 mM KCl, and fluorescence was measured for another 45 seconds. Data were collected over the entire time course and analyzed using Excel, Graph Pad Prism, or an in-house regression analysis software.

Compound | IC50 [1] | IC50 [2]
COc1cccc(NCCC(=O)N2CCC(N(C(C)C)S(=O)(=O)c3cccc(C(F)(F)F)c3)CC2)c1OC [N-{1-[3-(2,3-dimethoxy-phenylamino)-propionyl]-piperidin-4-yl}-N-isopropyl-3-trifluoromethyl-benzenesulfonamide] | 310 nM | 10 to 20 µM
CC(C)N(C1CCN(C(=O)CCNc2cccc(Cl)c2)CC1)S(=O)(=O)c1cccc(C(F)(F)F)c1 [N-{1-[3-(3-chloro-phenylamino)-propionyl]-piperidin-4-yl}-N-isopropyl-3-trifluoromethyl-benzenesulfonamide] | 900 nM | > 20 µM
CC(C)N(C1CCN(CC(=O)Nc2ccc(C(F)(F)F)cn2)CC1)S(=O)(=O)c1cccc(C(F)(F)F)c1 [Compound 42m, 2-{4-[Isopropyl-(3-trifluoromethylbenzenesulfonyl)amino]-piperidin-1-yl}-N-(5-trifluoromethylpyridin-2-yl)-acetamide] | 410 nM | > 20 µM
CC(C)C[C@H](NC1CCCC1)C(=O)N1CCC(N(C(C)C)S(=O)(=O)c2cccc(C(F)(F)F)c2)CC1 [Compound 88c, (S)—N-[1-(2-Cyclopentylamino-4-methyl-pentanoyl)-piperidin-4-yl]-N-isopropyl-3-trifluoromethyl-benzenesulfonamide] | 620 nM | 7.08 µM
COc1cc(NCCC(=O)N2CCC(N(C(C)C)S(=O)(=O)c3cccc(C(F)(F)F)c3)CC2)ccc1F [N-{1-[3-(4-fluoro-3-methoxy-phenylamino)-propionyl]-piperidin-4-yl}-N-isopropyl-3-trifluoromethyl-benzenesulfonamide] | 620 nM | > 20 µM
COc1cccc(NCCC(=O)N2CCC(N(C(C)C)S(=O)(=O)c3cccc(C(F)(F)F)c3)CC2)c1 [N-isopropyl-N-{1-[3-(3-methoxy-phenylamino)-propionyl]-piperidin-4-yl}-3-trifluoromethyl-benzenesulfonamide] | 420 nM | 10 to 20 µM
O=C(CC(=O)N1CCC(N(C2CC2)S(=O)(=O)c2cccc(C(F)(F)F)c2)CC1)Nc1ccc(F)cc1 [Compound 26, 3-{4-[Cyclopropyl-(3-trifluoromethylbenzenesulfonyl)amino]-piperidin-1-yl}-N-(4-fluorophenyl)-3-oxo-propionamide] | 440 nM | 3.78 µM
CC(C)C[C@H](NCc1ccccc1)C(=O)N1CCC(N(C(C)C)S(=O)(=O)c2cccc(C(F)(F)F)c2)CC1 [Compound 88b, (S)—N-[1-(2-Benzylamino-4-methylpentanoyl)-piperidin-4-yl]-N-isopropyl-3-trifluoromethylbenzenesulfonamide] | 300 nM | > 20 µM
CN(C1CCN(C(=O)Nc2cc(C(F)(F)F)cc(C(F)(F)F)c2)CC1)S(=O)(=O)c1ccccc1 [Compound 112, (4-Benzenesulfonyl-methyl-amino)-piperidine-1-carboxylic acid (3,5-bis-trifluoromethylphenyl)-amide] | 640 nM | > 20 µM
Cc1cc(C)cc(NC(=O)CN2CCC(N(C3CC3)S(=O)(=O)c3cccc(C(F)(F)F)c3)CC2)c1 [Compound 80, 2-{4-[Cyclopropyl-(3-trifluoromethylbenzenesulfonyl)amino]-piperidin-1-yl}-N-(3,5-dimethylphenyl)-acetamide] | 500 nM | > 20 µM
CCN(CC)C(=O)CN1CCC(N(C2CC2)S(=O)(=O)c2cccc(C(F)(F)F)c2)CC1 [Compound 38, 2-{4-[Cyclopropyl-(3-trifluoromethylbenzenesulfonyl)amino]-piperidin-1-yl}-N,N-diethylacetamide] | 840 nM | 3.26 µM
CCOc1ccccc1NC(=O)CN1CCC(N(C(C)C)S(=O)(=O)c2cccc(C(F)(F)F)c2)CC1 [Compound 42c, N-(2-Ethoxyphenyl)-2-{4-[isopropyl-(3-trifluoromethylbenzenesulfonyl)amino]-piperidin-1-yl}-acetamide] | 110 nM | 9.54 µM
CC(C)N(C1CCN(C(=O)[C@H](Cc2ccccc2)NCC2CCCCC2)CC1)S(=O)(=O)c1cccc(C(F)(F)F)c1 [Compound 88d, (S)—N-{1-[2-(Cyclohexylmethyl-amino)-3-phenyl-propionyl]-piperidin-4-yl}-N-isopropyl-3-trifluoromethyl-benzenesulfonamide] | 100 nM | 3.58 µM
CC(C)N(C1CCN(CC(=O)NCc2ccc(F)cc2)CC1)S(=O)(=O)c1cccc(C(F)(F)F)c1 [Compound 42k, N-(4-Fluorobenzyl)-2-{4-[isopropyl-(3-trifluoromethylbenzenesulfonyl)amino]-piperidin-1-yl}-acetamide] | 330 nM | 4.16 µM
COc1ccccc1NCCC(=O)N1CCC(N(C(C)C)S(=O)(=O)c2cccc(C(F)(F)F)c2)CC1 [N-isopropyl-N-{1-[3-(2-methoxy-phenylamino)-propionyl]-piperidin-4-yl}-3-trifluoromethyl-benzenesulfonamide] | 370 nM | 3.8 µM
CC(C)CNC(=O)CN1CCC(N(C2CC2)S(=O)(=O)c2ccccc2)CC1 [Compound 37, 2-[4-(Benzenesulfonyl-cyclopropylamino)-piperidin-1-yl]-N-isobutylacetamide] | > 20000 nM | –
2-[4-(Benzenesulfonylmethylamino)-piperidin-1-yl]-N-(4-fluorophenyl)acetamide [Compound 47] | 2950 nM | –
O=C(CN1CCC(N(C2CC2)S(=O)(=O)c2cccc(F)c2)CC1)Nc1ccc(F)cc1 [Compound 46, 2-{4-[Cyclopropyl-(3-fluorobenzenesulfonyl)amino]-piperidin-1-yl}-N-(4-fluorophenyl)acetamide] | 2030 nM | –
O=C(CN1CCC(N(C2CC2)S(=O)(=O)c2ccc(Cl)cc2)CC1)Nc1cc(C(F)(F)F)cc(C(F)(F)F)c1 [Compound 67, N-(3,5-Bis-trifluoromethylphenyl)-2-{4-[(4-chlorobenzenesulfonyl)-cyclopropylamino]-piperidin-1-yl}-acetamide] | 4170 nM | –
O=C(CC(=O)N1CCC(N(C2CC2)S(=O)(=O)c2cccc(Cl)c2)CC1)Nc1ccc(F)cc1F [Compound 29, 3-{4-[(3-Chlorobenzenesulfonyl)-cyclopropylamino]-piperidin-1-yl}-N-(2,4-difluorophenyl)-3-oxo-propionamide] | 8860 nM | –
CC(C)N(C1CCN(C(=O)C(N)Cc2cccc3ccccc23)CC1)S(=O)(=O)c1cccc(C(F)(F)F)c1 (stereo not shown) [N-[1-(2-amino-3-naphthalen-1-yl-propionyl)-piperidin-4-yl]-N-isopropyl-3-trifluoromethyl-benzenesulfonamide] | 2550 nM | –
CC(C)N(C1CCN(C(=O)C(C)(C)N)CC1)S(=O)(=O)c1cccc(C(F)(F)F)c1 [N-[1-(2-amino-2-methyl-propionyl)-piperidin-4-yl]-N-isopropyl-3-trifluoromethylbenzenesulfonamide] | 9390 nM | –
